# Where two headings read alike, the source gives them in different places.
# Tests used:
# [1] = biological target: human Nav 1.5 (Homo sapiens (Human), UniProt Q14524); assay: Nav 1.5 IonWorks Quattro (IWQ) in vitro assay; format: cell-based
# [2] = biological target: human Nav1.7 (Homo sapiens (Human), UniProt Q15858); assay: Nav 1.7 in vitro PatchXpress (PX) assay; format: cell-based
# [3] = in-vitro Nav 1.5 IWQ data, read-out: NAV 1.5 IWQ (IC50)
# Chain of human Nav 1.5 (Q14524 whole entry): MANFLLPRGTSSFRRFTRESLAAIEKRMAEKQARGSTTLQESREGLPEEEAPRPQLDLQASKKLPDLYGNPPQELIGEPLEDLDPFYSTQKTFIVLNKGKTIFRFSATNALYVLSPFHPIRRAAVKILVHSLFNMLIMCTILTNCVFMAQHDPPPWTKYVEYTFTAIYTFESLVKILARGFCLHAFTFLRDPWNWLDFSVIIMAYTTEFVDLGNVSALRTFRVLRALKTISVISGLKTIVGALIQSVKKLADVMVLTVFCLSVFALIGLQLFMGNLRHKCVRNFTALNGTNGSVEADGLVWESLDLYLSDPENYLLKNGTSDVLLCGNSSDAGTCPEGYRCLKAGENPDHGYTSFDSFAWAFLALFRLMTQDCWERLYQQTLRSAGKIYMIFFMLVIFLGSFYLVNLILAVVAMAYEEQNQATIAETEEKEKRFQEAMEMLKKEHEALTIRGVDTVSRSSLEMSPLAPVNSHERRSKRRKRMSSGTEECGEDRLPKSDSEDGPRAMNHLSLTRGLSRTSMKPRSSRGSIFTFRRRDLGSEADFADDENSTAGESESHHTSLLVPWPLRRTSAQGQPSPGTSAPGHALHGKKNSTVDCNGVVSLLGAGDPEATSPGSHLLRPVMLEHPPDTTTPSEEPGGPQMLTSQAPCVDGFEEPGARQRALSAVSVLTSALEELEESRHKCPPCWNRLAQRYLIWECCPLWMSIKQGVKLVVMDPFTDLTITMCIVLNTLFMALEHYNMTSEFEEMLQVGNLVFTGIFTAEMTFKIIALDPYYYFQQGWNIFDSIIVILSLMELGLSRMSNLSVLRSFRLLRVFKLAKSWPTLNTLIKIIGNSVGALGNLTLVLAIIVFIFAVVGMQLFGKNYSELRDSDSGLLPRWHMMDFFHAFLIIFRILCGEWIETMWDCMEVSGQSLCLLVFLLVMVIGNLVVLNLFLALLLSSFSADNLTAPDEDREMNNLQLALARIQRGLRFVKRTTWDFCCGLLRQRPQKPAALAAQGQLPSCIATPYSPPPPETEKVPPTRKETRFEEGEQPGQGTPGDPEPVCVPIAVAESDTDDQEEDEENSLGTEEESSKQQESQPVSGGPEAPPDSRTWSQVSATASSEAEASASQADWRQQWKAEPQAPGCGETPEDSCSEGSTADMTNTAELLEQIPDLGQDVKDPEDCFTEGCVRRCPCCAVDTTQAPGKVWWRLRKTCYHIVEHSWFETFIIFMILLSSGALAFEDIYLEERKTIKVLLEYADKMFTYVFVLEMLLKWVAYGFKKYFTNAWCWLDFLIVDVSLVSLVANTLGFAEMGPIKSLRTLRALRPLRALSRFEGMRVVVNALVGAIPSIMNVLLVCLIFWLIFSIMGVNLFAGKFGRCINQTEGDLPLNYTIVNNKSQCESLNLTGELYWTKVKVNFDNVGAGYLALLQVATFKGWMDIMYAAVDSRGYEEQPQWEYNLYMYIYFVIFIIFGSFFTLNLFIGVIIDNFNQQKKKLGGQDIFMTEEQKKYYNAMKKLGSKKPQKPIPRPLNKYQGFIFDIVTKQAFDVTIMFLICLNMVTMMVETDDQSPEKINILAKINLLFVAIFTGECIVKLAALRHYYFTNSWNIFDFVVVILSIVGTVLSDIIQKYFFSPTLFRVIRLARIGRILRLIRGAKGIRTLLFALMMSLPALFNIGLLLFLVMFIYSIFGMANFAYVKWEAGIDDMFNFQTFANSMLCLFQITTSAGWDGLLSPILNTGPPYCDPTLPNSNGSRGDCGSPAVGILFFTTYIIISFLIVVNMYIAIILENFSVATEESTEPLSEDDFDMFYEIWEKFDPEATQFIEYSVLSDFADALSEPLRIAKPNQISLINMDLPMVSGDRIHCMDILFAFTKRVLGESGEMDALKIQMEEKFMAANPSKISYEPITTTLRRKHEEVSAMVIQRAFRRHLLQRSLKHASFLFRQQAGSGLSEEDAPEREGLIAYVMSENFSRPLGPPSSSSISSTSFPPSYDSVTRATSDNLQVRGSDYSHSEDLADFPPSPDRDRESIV
# Chain of human Nav1.7 (Q15858 whole entry): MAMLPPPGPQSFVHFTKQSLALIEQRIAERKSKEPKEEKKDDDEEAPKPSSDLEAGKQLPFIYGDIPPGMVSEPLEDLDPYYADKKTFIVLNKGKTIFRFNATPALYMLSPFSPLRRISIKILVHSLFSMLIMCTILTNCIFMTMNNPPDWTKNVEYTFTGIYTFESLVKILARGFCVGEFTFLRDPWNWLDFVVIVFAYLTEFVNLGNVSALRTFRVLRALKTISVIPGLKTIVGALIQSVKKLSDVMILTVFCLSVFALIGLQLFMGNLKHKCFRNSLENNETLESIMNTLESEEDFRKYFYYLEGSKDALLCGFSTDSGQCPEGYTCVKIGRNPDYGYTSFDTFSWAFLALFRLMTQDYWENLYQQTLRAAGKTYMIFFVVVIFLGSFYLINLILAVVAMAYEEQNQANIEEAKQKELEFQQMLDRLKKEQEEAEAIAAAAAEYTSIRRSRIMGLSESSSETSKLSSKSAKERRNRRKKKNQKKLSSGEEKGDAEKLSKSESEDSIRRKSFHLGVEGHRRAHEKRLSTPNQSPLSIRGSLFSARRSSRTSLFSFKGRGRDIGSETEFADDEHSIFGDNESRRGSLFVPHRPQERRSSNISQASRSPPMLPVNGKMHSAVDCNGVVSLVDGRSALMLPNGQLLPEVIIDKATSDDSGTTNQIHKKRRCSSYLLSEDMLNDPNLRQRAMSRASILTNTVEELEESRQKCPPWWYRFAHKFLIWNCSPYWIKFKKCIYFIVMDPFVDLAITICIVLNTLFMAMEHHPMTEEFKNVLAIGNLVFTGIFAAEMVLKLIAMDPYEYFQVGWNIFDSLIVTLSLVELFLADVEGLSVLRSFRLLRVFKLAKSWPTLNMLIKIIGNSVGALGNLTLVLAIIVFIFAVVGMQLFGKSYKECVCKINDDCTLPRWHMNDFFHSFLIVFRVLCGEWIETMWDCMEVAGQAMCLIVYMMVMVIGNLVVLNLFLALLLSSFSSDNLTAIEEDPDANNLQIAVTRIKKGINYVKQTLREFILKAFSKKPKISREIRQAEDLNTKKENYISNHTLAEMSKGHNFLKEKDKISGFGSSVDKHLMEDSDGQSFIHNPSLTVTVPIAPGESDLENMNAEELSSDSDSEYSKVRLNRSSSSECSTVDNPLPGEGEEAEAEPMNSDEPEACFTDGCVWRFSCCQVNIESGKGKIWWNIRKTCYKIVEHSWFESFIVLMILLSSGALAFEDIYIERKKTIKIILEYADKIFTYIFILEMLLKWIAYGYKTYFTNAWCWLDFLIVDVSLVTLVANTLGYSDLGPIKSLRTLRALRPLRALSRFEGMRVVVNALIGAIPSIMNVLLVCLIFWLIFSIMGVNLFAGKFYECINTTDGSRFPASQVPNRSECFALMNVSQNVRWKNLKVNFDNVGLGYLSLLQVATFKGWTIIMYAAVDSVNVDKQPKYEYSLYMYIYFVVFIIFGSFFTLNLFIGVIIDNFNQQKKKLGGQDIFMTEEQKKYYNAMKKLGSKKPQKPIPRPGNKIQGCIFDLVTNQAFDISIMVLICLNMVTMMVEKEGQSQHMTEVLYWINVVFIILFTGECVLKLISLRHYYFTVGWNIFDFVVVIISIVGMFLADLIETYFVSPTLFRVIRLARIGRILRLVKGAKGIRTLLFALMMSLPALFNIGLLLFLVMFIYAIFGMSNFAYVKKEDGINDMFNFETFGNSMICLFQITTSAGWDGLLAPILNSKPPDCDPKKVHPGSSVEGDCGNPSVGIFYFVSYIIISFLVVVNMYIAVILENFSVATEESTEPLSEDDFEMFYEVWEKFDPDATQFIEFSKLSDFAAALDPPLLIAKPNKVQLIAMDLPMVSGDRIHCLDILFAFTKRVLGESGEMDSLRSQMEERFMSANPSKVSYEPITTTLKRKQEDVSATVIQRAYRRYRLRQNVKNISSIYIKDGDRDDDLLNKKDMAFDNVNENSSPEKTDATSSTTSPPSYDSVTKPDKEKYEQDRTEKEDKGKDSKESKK
SMILES,IC50 ([1]; read-out: NAV 1.5 IWQ IC50),IC50 [2],"IC50 [1, 3]",IC50 ([2]; in-vitro Nav 1.7 PX data),IC50 [1]
"COc1cc(C(=O)NS(C)(=O)=O)c(F)cc1-c1cnc(Oc2cc(Cl)ccc2C)c(Cl)c1 [Example 699, 4-(5-chloro-6-(5-chloro-2-methylphenoxy)-3-pyridinyl)-2-fluoro-5-methoxy-N-(methylsulfonyl)benzamide]",> 3000 nM,55.1 nM,,,
"Cc1cc(C(=O)NS(C)(=O)=O)c(F)cc1-c1cnc(O[C@H](C)c2nc3cc(Cl)ccc3s2)c(Cl)c1 [Example 653, 4-(5-chloro-6-((1R)-1-(5-chloro-1,3-benzothiazol-2-yl)ethoxy)-3-pyridinyl)-2-fluoro-5-methyl-N-(methylsulfonyl)benzamide, 4-(5-chloro-6-((1S)-1-(5-chloro-1,3-benzothiazol-2-yl)ethoxy)-3-pyridinyl)-2-fluoro-5-methyl-N-(methylsulfonyl)benzamide]",> 3000 nM,83.6 nM,,,
"COc1cc(C(=O)NS(C)(=O)=O)ccc1-c1cnc(COc2ccc(Cl)c(Cl)c2)c(Cl)c1 [Example 774, 4-(5-Chloro-6-((3,4-Dichlorophenoxy)-Methyl)Pyridin-3-yl)-3-Methoxy-N-(Methylsulfonyl)Benzamide]",,,> 3000 nM,80.1 nM,
"Cc1cc(C(=O)NS(C)(=O)=O)c(F)cc1-c1cnc(O[C@H](C)C2CCC2)c(Cl)c1 [Example 641, 4-(5-chloro-6-((1R)-1-cyclobutylethoxy)-3-pyridinyl)-2-fluoro-5-methyl-N-(methylsulfonyl)benzamide, 4-(5-chloro-6-((1S)-1-cyclobutylethoxy)-3-pyridinyl)-2-fluoro-5-methyl-N-(methylsulfonyl)benzamide]",9320 nM,111 nM,,,
"CCS(=O)(=O)NC(=O)c1cc(C)c(-c2cnc(Oc3c(C)cc(Cl)cc3Cl)c(Cl)c2)cc1F [Example 800, 4-(5-chloro-6-(2,4-dichloro-6-methylphenoxy)-3-pyridinyl)-N-(ethylsulfonyl)-2-fluoro-5-methylbenzamide]",,,1250 nM,96 nM,
"COc1cc(C(=O)NS(C)(=O)=O)ccc1-c1cnc(Oc2c(C)cc(Cl)cc2Cl)c(C#N)c1 [Example 689, 4-(5-cyano-6-(2,4-dichloro-6-methylphenoxy)-3-pyridinyl)-3-methoxy-N-(methylsulfonyl)benzamide]",1000 nM,28.4 nM,,,
"Cc1cc(C(=O)NS(C)(=O)=O)c(F)cc1-c1cnc(OCCC(C)C)c(Cl)c1 [Example 637, 4-(5-chloro-6-(3-methylbutoxy)-3-pyridinyl)-2-fluoro-5-methyl-N-(methylsulfonyl)benzamide]",> 3000 nM,87.7 nM,,,
"Cc1cc(C(=O)NS(C)(=O)=O)c(F)cc1-c1cnc(Oc2ccc(C)c3c2CCC3)c(Cl)c1 [Example 662, 4-(5-chloro-6-((7-methyl-2,3-dihydro-1H-inden-4-yl)oxy)-3-pyridinyl)-2-fluoro-5-methyl-N-(methylsulfonyl)benzamide]",3770 nM,88.2 nM,,,
"Cc1cc(C(=O)NS(C)(=O)=O)c(F)cc1-c1cnc(Oc2cc(F)ccc2F)c(Cl)c1 [Example 605, 4-(5-chloro-6-(2,5-difluorophenoxy)-3-pyridinyl)-2-fluoro-5-methyl-N-(methylsulfonyl)benzamide]",> 3000 nM,45.5 nM,,,
"Cc1cc(C(=O)NS(C)(=O)=O)c(F)cc1-c1cnc(O[C@](C)(c2ccccc2)C(F)(F)F)c(Cl)c1 [Example 587, 4-(5-chloro-6-((1R)-2,2,2-trifluoro-1-methyl-1-phenylethoxy)-3-pyridinyl)-2-fluoro-5-methyl-N-(methylsulfonyl)benzamide, 4-(5-chloro-6-((1S)-2,2,2-trifluoro-1-methyl-1-phenylethoxy)-3-pyridinyl)-2-fluoro-5-methyl-N-(methylsulfonyl)benzamide]",> 3000 nM,81.5 nM,,,
"Cc1cc(C(=O)NS(C)(=O)=O)c(F)cc1-c1cnc(Oc2cccc(Br)c2)c(Cl)c1 [Example 607, 4-(6-(3-bromophenoxy)-5-chloro-3-pyridinyl)-2-fluoro-5-methyl-N-(methylsulfonyl)benzamide]",> 3000 nM,68.2 nM,,,
"Cc1cc(Cl)cc(Cl)c1Oc1ncc(-c2ccc(C(=O)NS(C)(=O)=O)cc2OC(F)F)cc1Cl [Example 585, 4-(5-chloro-6-(2,4-dichloro-6-methylphenoxy)-3-pyridinyl)-3-(difluoromethoxy)-N-(methylsulfonyl)benzamide]",289 nM,47.2 nM,,,
"Cc1cc(C(=O)NS(C)(=O)=O)c(F)cc1-c1cnc(Oc2ccc(F)c3c2CCC3)c(Cl)c1 [Example 672, 4-(5-chloro-6-((7-fluoro-2,3-dihydro-1H-inden-4-yl)oxy)-3-pyridinyl)-2-fluoro-5-methyl-N-(methylsulfonyl)benzamide]",> 10000 nM,67.5 nM,,,
"Cc1cc(C(=O)NS(C)(=O)=O)c(F)cc1-c1cnc(Oc2ccc(Cl)c3ccccc23)c(Cl)c1 [Example 613, 4-(5-chloro-6-((4-chloro-1-naphthalenyl)oxy)-3-pyridinyl)-2-fluoro-5-methyl-N-(methylsulfonyl)benzamide]",> 3000 nM,92.7 nM,,,
"CNS(=O)(=O)NC(=O)c1ccc(-c2cnc(Oc3cc(Cl)cc(Cl)c3)c(Cl)c2)c(OC)c1 [Example 772, 4-(5-Chloro-6-(3,5-Dichlorophenoxy)Pyridin-3-yl)-3-Methoxy-N—(N-Methylsulfamoyl)Benzamide]",,,> 3000 nM,80.7 nM,
"Cc1cc(C(=O)NS(C)(=O)=O)c(F)cc1-c1cnc(O[C@H](C)CCc2ccccc2)c(Cl)c1 [Example 638, 4-(5-chloro-6-(((1R)-1-methyl-3-phenylpropyl)oxy)-3-pyridinyl)-2-fluoro-5-methyl-N-(methylsulfonyl)benzamide, 4-(5-chloro-6-(((1S)-1-methyl-3-phenylpropyl)oxy)-3-pyridinyl)-2-fluoro-5-methyl-N-(methylsulfonyl)benzamide]",> 3000 nM,80 nM,,,
"Cc1ccc(Oc2ncc(-c3cc(F)c(C(=O)NS(C)(=O)=O)cc3C)cc2Cl)cc1F [Example 623, 4-(5-chloro-6-(3-fluoro-4-methylphenoxy)-3-pyridinyl)-2-fluoro-5-methyl-N-(methylsulfonyl)benzamide]",,48.5 nM,,,4840 nM
"Cc1ccc(Oc2ncc(-c3cc(F)c(C(=O)NS(C)(=O)=O)cc3C)cc2Cl)c(C(C)(C)C)c1 [Example 634, 4-(6-(2-tert-butyl-4-methylphenoxy)-5-chloro-3-pyridinyl)-2-fluoro-5-methyl-N-(methylsulfonyl)benzamide]",> 3000 nM,94.8 nM,,,
"Cc1cc(C(=O)NS(C)(=O)=O)c(F)cc1-c1cnc(Oc2cccc(Cl)c2F)c(Cl)c1 [Example 619, 4-(5-chloro-6-(3-chloro-2-fluorophenoxy)-3-pyridinyl)-2-fluoro-5-methyl-N-(methylsulfonyl)benzamide]",> 3000 nM,93.7 nM,,,
"Cc1cc(C(=O)NS(C)(=O)=O)c(F)cc1-c1cnc(Oc2cc(Cl)c(Cl)cc2Cl)c(Cl)c1 [Example 667, 4-(5-chloro-6-(2,4,5-trichlorophenoxy)-3-pyridinyl)-2-fluoro-5-methyl-N-(methylsulfonyl)benzamide]",7450 nM,50.5 nM,,,
